Source: article doi:10.1101/2020.08.18.255380v4 (biorxiv, 2021)

What was measured:
DalS [1] = target: DalS (Salmonella enterica, UniProt Q8ZPA3, A147S/A76D/D216E/F117L/T197Y/Y148Q); assay: biochemical
DalS [2] = target: DalS (Salmonella enterica, UniProt Q8ZPA3); assay: fluorescence; type: binding
DalS [3] = target: DalS (Salmonella enterica, UniProt Q8ZPA3, A147S); assay: biochemical
DalS [4] = target: DalS (Salmonella enterica, UniProt Q8ZPA3, Y148Q); assay: biochemical
DalS [5] = target: DalS (Salmonella enterica, UniProt Q8ZPA3, A147S/A76D/D216E/F117L/S60R/Y148Q); assay: biochemical
DalS [6] = target: DalS (Salmonella enterica, UniProt Q8ZPA3, A147S/F117L/Y148Q); assay: biochemical
DalS [7] = target: DalS (Salmonella enterica, UniProt Q8ZPA3, F117L); assay: biochemical

SMILES	Kd (DalS [1]) [µM]	Kd (DalS [2]) [µM]	Kd (DalS [3]) [µM]	Kd (DalS [4]) [µM]	Kd (DalS [5]) [µM]	Kd (DalS [6]) [µM]	Kd (DalS [7]) [µM]
C[C@@H](N)C(=O)O [D-alanine]	14 ± 1	5.4 ± 0.4	0.62 ± 0.03	–	–	–	–
N[C@H](CO)C(=O)O [D-serine]	4.8 ± 0.2	12 ± 1	1.8 ± 0.4	101 ± 3	70 ± 17	43 ± 1	3.7 ± 0.2
NCC(=O)O [glycine]	40 ± 2	5 ± 1	–	–	–	–	–
